Patent US6706764B2, “Use of creatine or creatine analogs for the treatment of diseases of the nervous system” (Avicena Group, Inc., priority 1994, dated 2004)

Assays:
[1] = compared with phosphocreatine; cited from earlier work
MPTP toxicity = MPTP toxicity in mice, earlier work of the inventors; type: in vivo
From the text: This metabolite is formed by the activity of monoamine oxidase on MPTP. Inhibitors of monoamine oxidase block the neurotoxicity of MPTP in both mice and primates. The specificity of the neurotoxic effects of MPP^+ for dopaminergic neurons appears to be due to the uptake of MPP^+ by the synaptic dopamine transporter. Blockers of this transporter prevent MPP^+ neurotoxicity. […] It binds to complex I at the retenone binding site. […] In vivo studies have shown that MPTP can deplete striatal ATP concentrations in mice.

[2] = system: malonate striatal excitotoxic lesions; settings: cited from earlier work; for protection against lesions in the malonate animal model: intrastriatal malonate; for ATP depletion produced by malonate in vivo: rat
[3] = mice, up to 1% of diet for 2 weeks or for over 4 weeks; cited from earlier work
[4] = system: MPTP induced dopaminiergic toxicity; experiment: MPTP model for Parkinson's disease, striatal dopamine, DOPAC and HVA by HPLC; type: in vivo, male Swiss Webster mice; settings: for neuroprotection against dopamine depletions: dose response
Procedure: The effect of two representative creatine compounds, creatine and cyclocreatine, were evaluated using this model. Creatine and cyclocreatine were administered in the initial pilot experiment as 1% formulation in the feed of animals, and was administered for three weeks before MPTP treatment. MPTP was administered intraperitoneally at a dose of 15 mg/kg every 2 hours for five injections. The animals then remained on either creatine or cyclocreaine supplemented diets for 1 week before sacrifice. The mice examined were male Swiss Webster mice weighing 30-35 grams obtained from Taconic Farms. Control groups recieved either normal saline or MPTP hydrochloride alone. MPTP was administered in 0.1 ml of water. The MPTP was obtained from Research Biochemicals. Eight to twelve animals were examined in each group. Following sacrifice the two striata were rapidly dissected and placed in chilled 0.1 M perchloric acid. Tissue was subsequently sonicated, and aliquots were taken for protein quantification using a fluorometer assay. Dopamine, 3,4-dihydroxyphenylacetic acid (DOPAC), and homovanillic acid (HVA) were quantified by HPLC with 16 electrode electrochemical detection. Concentrations of dopamine and metabolites were expressed as nmol/mg protein. The statistical significance of differences was determined by one-way ANOVA followed by Fisher PLSDpost-hoc test to compare group means.
A dose response study was conducted where the creatine dose was 0.25%-3.0% of the diet and cyclocreatine 0.25-1.0% of the diet.

[5] = cited from earlier work
[6] = fed to mice, rats and chicks; cited from earlier work
[7] = cited from earlier work; remark: listed apart in the source
viral infections = settings: 1% dietary; cited from earlier work
[8] = system: malonate induced striatal lesions; experiment: Malonate induced striatal lesions, model for Huntington's disease; type: in vivo, rats
Procedure: We initially examined whether oral administration of creatine or its analogue cyclocreatine could attenuate malonate lesions. Creatine was administered orally to rats in their feed at doses of 0.25-3.0% of the diet. Cyclocreatine was administered at 0.2-1.0%. Controls received unsupplemented otherwise identical diets. The compounds were administered for two weeks prior to the administration of malonate and then for a further week prior to sacrifice. Malonate was dissolved in distilled deionized water and the pH wad adjusted to 7.4 with 0.1 m HCI. Intrastriatal injections of 1.5 ul of malonate containing 3 μmol were made into the striatum at the level of the Bregma 2.4 mm lateral to the midline and 4.5 mm ventral to the dura. Animals were sacrificed at 7 days by decapitation, and the brains were quickly removed and placed in ice cold 0.9% saline solution. Brains were sectioned at 2 mm intervals. Slices were then placed posterior side down in 2% 2,3,5-triphenyltetrazolium chloride. Slices were stained in the dark at room temperature for 30 minutes and then removed and placed in 4% paraformaldehyde, pH 7.3. Lesions, noted by pale staining, were evaluated on the posterior surface of each section using a Bioquant 4 system by an experienced histologist blinded to experimental conditions. These measurements have been validated by comparing them to measurements obtained on adjacent Nissl stain sections.

creatine kinase [9] = settings: forward reaction, both in vitro and in vivo; cited from earlier work
creatine kinase [10] = settings: cited from earlier work
[11] = intravenous injection, up to 8 grams/day, patients with cardiac diseases; cited from earlier work
[12] = pilot, 1% in feed, oral, FIG. 4

Compound: 3-phosphoryl-1-carboxymethyl-2-iminoimidazolidine [cyclocreatine phosphate]
- stability of the P-N bond [1]: more stable than that of phosphocreatine

Compound: COC1=C(OC)C(=O)C(C/C=C(\C)CC/C=C(\C)CC/C=C(\C)CC/C=C(\C)CC/C=C(\C)CC/C=C(\C)CC/C=C(\C)CC/C=C(\C)CC/C=C(\C)CCC=C(C)C)=C(C)C1=O [Q10, coenzyme Q10]
- protection against MPTP toxicity (MPTP toxicity): significantly protect
- protection against lesions in the malonate animal model [2]: dose dependent protection
- ATP depletion produced by malonate in vivo [2]: attenuated

Compound: NC1=NCCN1CC(=O)O [cyclocreatine, 1-carboxymethyl-2-iminoimidazolidine]
- gross adverse effects [3]: without gross adverse effects
- protection against HVA depletion ([4]; 0.5% of the diet, FIG. 5): not seen
- effect on 3-4-dihydroxyphenyl acetic acid (DOPAC) ([4]; dose response study, FIG. 5): neuroprotection effects
- effect on homovanillic acid (HVA) ([4]; dose response study, FIG. 5): neuroprotection effects
- neuroprotection against dopamine depletions ([4]; 0.5% of the diet, FIG. 5): significant protection
- neuroprotection against dopamine depletions ([4]; 1.0% of the diet, FIG. 5): significant protection
- effect against MPTP induced depletions of homovanillic acid [4, 12]: effective
- neuroprotection against MPTP induced dopamine depletions [4, 12]: significant neuroprotection
- neuroprotective effect compared with creatine [4, 12]: greater than that seen with creatine alone
- protection against DOPAC depletions induced by MPTP [4, 12]: significantly protected
- accumulation in different organs ([5]; feeding animals e.g. 1% dietary): mM concentrations
- tissue uptake ([5]; rats receiving dietary 1%): taken up by muscle, heart and brain
- tolerability [6]: well-tolerated
- growth ([7]; in vivo): grew more slowly than control chicks
- mortality ([7]; newly hatched chicks, diet containing 1%, in the presence of antibiotics): without significant mortality
- antiviral activity (viral infections): observed
- neuroprotection against malonate induced striatal lesions ([8]; dose of 1% in the diet, FIG. 2): significant
- neuroprotection against malonate induced striatal lesions, dose response ([8]; increasing doses in the diet: creatine 0.25-3%, cyclocreatine 0.2-1.0%, FIG. 2): dose dependent neuroprotective effects
- protection against striatal malonate lesions (lesion volume) ([8]; initial pilot experiment, oral supplementation in feed, FIG. 1): protected against striatal malonate lesions
- phosphorylation by creatine kinase (creatine kinase [9]): phosphorylated efficiently

Compound: N=C(N)N(CC(=O)O)CC1CO1 (stereo not shown) [epoxycreatine]
- inactivation of creatine kinase (creatine kinase [10]): completely and irreversibly inactivate

Compound: Nc1nnc(-c2cccc(Cl)c2Cl)c(N)n1 [lamotrigine]
- protection against lesions in the malonate animal model [2]: attenuates the lesions

Compound: NC(=O)c1cccnc1 [nicotinimide]
- protection against lesions in the malonate animal model [2]: dose dependent protection
- ATP depletion produced by malonate in vivo [2]: attenuated

Compound: O=C(O)CCC(=O)O [succinate]
- malonate lesions on co-injection ([2]; co-injection with malonate): blocks the lesions

Compound: N-phosphoryl creatine [creatine phosphate]
- adverse side effects [11]: no adverse side effects

Compound: isoepoxycreatine
- inactivation of creatine kinase (creatine kinase [10]): completely and irreversibly inactivate
